Results taken from ChEMBL document CHEMBL4680322, “Mono- and bis-pyrazolophthalazines: Design, synthesis, cytotoxic activity, DNA/HSA binding and molecular docking studies” (Bioorg Med Chem, 2021).
Active and inactive are the calls of the source. No cut-off for these calls is given here.

Assays:
[1] = tested on: MCF7; assay: Cytotoxicity against human MCF7 cells assessed as reduction in cell viability measured after 24 hrs by MTT assay; assay type: functional, cell-based; settings: MCF7, 24 h
[2] = tested on: HT-29; assay: Cytotoxicity against human HT-29 cells assessed as reduction in cell viability measured after 24 hrs by MTT assay; assay type: functional, cell-based; settings: HT-29, 24 h
[3] = tested on: HepG2; assay: Cytotoxicity against human HepG2 cells assessed as reduction in cell viability measured after 24 hrs by MTT assay; assay type: functional, cell-based; settings: HepG2, 24 h
[4] = tested on: A549; assay: Cytotoxicity against human A549 cells assessed as reduction in cell viability measured after 24 hrs by MTT assay; assay type: functional, cell-based; settings: A549, 24 h
[5] = target: T1, Albumin (Homo sapiens, UniProt P02768); assay: Binding affinity to human serum albumin assessed as apparent binding constant for protein-compound complex by B-H plot analysis; assay type: ADME, cell-free
[6] = tested on: Calf thymus DNA; assay: Binding affinity to calf thymus DNA assessed as compound-DNA complex stoichiometry ratio of 1:1 by B-H plot analysis; settings: Bos taurus
[7] = target: T1, Albumin; assay: Binding affinity to human serum albumin assessed as conformational changes at 2 to 187 uM by UV-Visible spectroscopy; assay type: ADME, cell-free; settings: dose 2-187 µM
[8] = tested on: Calf thymus DNA; assay: Binding affinity to calf thymus DNA assessed as DNA-compound complex formation causing decrease in lambda-max shift at 3 to 187 uM and pH 7.4 by UV-Visible spectroscopy; settings: Bos taurus, dose 3-187 µM
[9] = target: T1, Albumin; assay: Binding affinity to human serum albumin assessed as alpha-helix perturbation with reduction in absorption intensity at 214 nm causing blue shift at 2 to 187 uM by UV-Visible spectroscopy; assay type: ADME, cell-free; settings: dose 2-187 µM
[10] = target: T1, Albumin; assay: Binding affinity to human serum albumin assessed as induction of secondary structural changes by measuring decrease in alpha content at 187 uM by circular dichroism spectroscopy relative to control; assay type: cell-free; design: scale not given: the % may be the effect or the level left
[11] = target: T1, Albumin; assay: Binding affinity to human serum albumin assessed as zeta potential by measuring surface charge (reference value: -16.15 mV); assay type: ADME, cell-free
[12] = tested on: Calf thymus DNA; assay: Binding affinity to calf thymus DNA assessed as apparent binding constant for DNA-compound complex by B-H plot analysis; settings: Bos taurus
[13] = tested on: Calf thymus DNA; assay: Binding affinity to calf thymus DNA assessed as zeta potential (reference value: -24.16 mV); assay type: tissue-based; settings: Bos taurus
[14] = tested on: A549; assay: Potency index, ratio of doxorubicin IC50 to test compound IC50 for human A549 cells assessed as reduction in cell viability measured after 24 hrs by MTT assay; assay type: functional
[15] = target: T1, Albumin; assay: Binding affinity to human serum albumin assessed as change in hydrodynamic radius by dynamic light scattering analysis (reference value: 3.56 nanometer); assay type: ADME, cell-free
[16] = target: T1, Albumin; assay: Binding affinity to human serum albumin assessed as compound-protein complex stoichiometry ratio of 1:1 by B-H plot analysis; assay type: ADME, cell-free
[17] = tested on: Calf thymus DNA; assay: Binding affinity to calf thymus DNA assessed as decrease in positive ellipticity by retaining basic CD spectrum shape at 187 uM by circular dichroism spectroscopy; settings: Bos taurus
[18] = tested on: Calf thymus DNA; assay: Binding affinity to calf thymus DNA assessed as DNA-compound complex formation causing decrease in band intensity at 3 to 187 uM and pH 7.4 by UV-Visible spectroscopy; settings: Bos taurus, dose 3-187 µM
[19] = target: T1, Albumin; assay: Binding affinity to human serum albumin assessed as microenvironmental changes at 2 to 187 uM by UV-Visible spectroscopy; assay type: ADME, cell-free; settings: dose 2-187 µM
[20] = tested on: MRC5; assay: Cytotoxicity against human MRC5 cells assessed as reduction in cell viability; assay type: cell-based
[21] = tested on: MCF7; assay: Potency index, ratio of doxorubicin IC50 to test compound IC50 for human MCF7 cells assessed as reduction in cell viability measured after 24 hrs by MTT assay; assay type: functional
[22] = tested on: MCF-10A; assay: Cytotoxicity against human MCF-10A cells assessed as reduction in cell viability; assay type: cell-based

T1 sequence (P02768 whole entry): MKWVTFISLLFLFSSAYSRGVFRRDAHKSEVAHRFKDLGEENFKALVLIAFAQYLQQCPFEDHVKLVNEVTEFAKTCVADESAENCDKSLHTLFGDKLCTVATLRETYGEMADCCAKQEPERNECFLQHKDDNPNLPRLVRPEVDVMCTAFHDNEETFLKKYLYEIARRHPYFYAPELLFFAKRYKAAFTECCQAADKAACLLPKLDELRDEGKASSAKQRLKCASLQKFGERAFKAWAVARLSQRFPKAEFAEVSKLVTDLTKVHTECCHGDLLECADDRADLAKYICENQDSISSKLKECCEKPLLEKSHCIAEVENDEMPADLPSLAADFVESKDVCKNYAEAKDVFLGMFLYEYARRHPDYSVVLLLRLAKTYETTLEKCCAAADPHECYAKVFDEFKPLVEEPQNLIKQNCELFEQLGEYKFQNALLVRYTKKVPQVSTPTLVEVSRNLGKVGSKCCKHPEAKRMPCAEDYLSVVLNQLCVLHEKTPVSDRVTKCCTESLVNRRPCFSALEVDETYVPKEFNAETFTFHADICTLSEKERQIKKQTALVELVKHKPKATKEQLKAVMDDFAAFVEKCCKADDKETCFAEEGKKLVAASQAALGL

Structure (SMILES)	IC50 [1] [µM]	IC50 [2] [µM]	IC50 [3] [µM]	IC50 [4] [µM]	other results
N#CC1=C(N)n2c(=O)c3ccccc3c(=O)n2C1c1ccc(C2C(C#N)=C(N)n3c(=O)c4ccccc4c(=O)n32)cc1 (centres undefined)	11.4	90.9	84.6	17.6	
N#CC1=C(N)n2c(=O)c3ccccc3c(=O)n2C1c1ccc(OCCCCOc2ccc(C3C(C#N)=C(N)n4c(=O)c5ccccc5c(=O)n43)cc2)cc1 (centres undefined)	155	419	426	264	
N#CC1=C(N)n2c(=O)c3ccccc3c(=O)n2C1c1ccc(Cl)cc1Cl (centres undefined)	10.4	1.56	11.4	64	
COc1ccc(C2C(C#N)=C(N)n3c(=O)c4ccccc4c(=O)n32)cc1OC (centres undefined)	5.1	36.4	73.5	24.7	
N#CC1=C(N)n2c(=O)c3ccccc3c(=O)n2C1c1ccccc1OCCOc1ccccc1C1C(C#N)=C(N)n2c(=O)c3ccccc3c(=O)n21 (centres undefined)	0.49	3.71	11.6	1.35	Kapp [5]: 3.8 10^4/M; Activity [6]: Active; Activity [7]: Active; Activity [8]: Active; Activity [9]: Active; Activity [10]: 48.08%; Activity [11]: -14.41 mV; Kapp [12]: 5 10^4/M; Activity [13]: Active; Ratio IC50 [14]: 2; Activity [15]: 5.28 nm; Activity [16]: Active; Activity [17]: -17.8 mV; Activity [18]: Active; Activity [19]: Active; IC50 [20]: 71.2 µM; Ratio IC50 [21]: 2; IC50 [22]: 61.2 µM
N#CC1=C(N)n2c(=O)c3ccccc3c(=O)n2C1c1ccc([N+](=O)[O-])cc1 (centres undefined)	60.8	79.1	170	212	
N#CC1=C(N)n2c(=O)c3ccccc3c(=O)n2C1c1ccccc1OCCCCOc1ccccc1C1C(C#N)=C(N)n2c(=O)c3ccccc3c(=O)n21 (centres undefined)	44.6	82.4	244	111	
N#CC1=C(N)n2c(=O)c3ccccc3c(=O)n2C1c1cccc(Cl)c1 (centres undefined)	7.84	69.3	28.2	11.6	
COc1cccc(C2C(C#N)=C(N)n3c(=O)c4ccccc4c(=O)n32)c1 (centres undefined)	23.2	107	178	38.3	
COc1ccc(C2C(C#N)=C(N)n3c(=O)c4ccccc4c(=O)n32)cc1 (centres undefined)	23.9	66.5	93.8	39.8	
N#CC1=C(N)n2c(=O)c3ccccc3c(=O)n2C1c1ccccc1 (centres undefined)	41.6	132	81.7	39.7	
N#CC1=C(N)n2c(=O)c3ccccc3c(=O)n2C1c1cccc(C2C(C#N)=C(N)n3c(=O)c4ccccc4c(=O)n32)c1 (centres undefined)	8.66	186	50.8	18.2	
COc1ccccc1C1C(C#N)=C(N)n2c(=O)c3ccccc3c(=O)n21 (centres undefined)	455	79.7	697	627	
N#CC1=C(N)n2c(=O)c3ccccc3c(=O)n2C1c1ccc(OCCCOc2ccc(C3C(C#N)=C(N)n4c(=O)c5ccccc5c(=O)n43)cc2)cc1 (centres undefined)	0.66	3.1	36.2	2.47	
N#CC1=C(N)n2c(=O)c3ccccc3c(=O)n2C1c1ccc(Cl)cc1 (centres undefined)	5.53	25.4	16.8	40.6	
COc1cccc2c1C(=O)c1c(O)c3c(c(O)c1C2=O)C[C@@](O)(C(=O)CO)C[C@@H]3O[C@H]1C[C@H](N)[C@H](O)[C@H](C)O1 [DOXORUBICIN]	1.77	1.13	2.32	2.31	IC50 [20]: 3.88 µM; IC50 [22]: 3.52 µM
N#CC1=C(N)n2c(=O)c3ccccc3c(=O)n2C1c1ccccc1OCCCOc1ccccc1C1C(C#N)=C(N)n2c(=O)c3ccccc3c(=O)n21 (centres undefined)	35.2	44.6	104	104	
N#CC1=C(N)n2c(=O)c3ccccc3c(=O)n2C1c1ccccc1Cl (centres undefined)	7.32	7.14	27.9	1.25	Kapp [5]: 5.2 10^3/M; Activity [6]: Active; Activity [7]: Active; Activity [8]: Active; Activity [9]: Active; Activity [10]: 47.71%; Activity [11]: -13.25 mV; Kapp [12]: 4.2 10^4/M; Activity [13]: Active; Activity [15]: 5.13 nm; Activity [16]: Active; Activity [17]: -18.1 mV; Activity [18]: Active; Activity [19]: Active; IC50 [20]: 388 µM; IC50 [22]: 213 µM
N#CC1=C(N)n2c(=O)c3ccccc3c(=O)n2C1c1ccc(Br)cc1 (centres undefined)	5.97	31	40.5	81.6	
N#CC1=C(N)n2c(=O)c3ccccc3c(=O)n2C1c1ccc(OCCOc2ccc(C3C(C#N)=C(N)n4c(=O)c5ccccc5c(=O)n43)cc2)cc1 (centres undefined)	91.3	268	249	183	
N#CC1=C(N)n2c(=O)c3ccccc3c(=O)n2C1c1cccc([N+](=O)[O-])c1 (centres undefined)	39.9	41.1	12.6	18.3	
N#CC1=C(N)n2c(=O)c3ccccc3c(=O)n2C1c1ccc(O)c([N+](=O)[O-])c1 (centres undefined)	77.4	124	19.5	47.5	
